The source of these data is US10329324B2 (viDA Therapeutics Inc., priority 2013, dated 2019).

The target in the first assay is T1, human Granzyme B (hGzmB) (Homo sapiens, UniProt P10144).
T1 construct: purchased Froelich Lab, Northshore University Health Systems Research Institute, Evanston, Ill., USA
T1 sequence (P10144 21-247): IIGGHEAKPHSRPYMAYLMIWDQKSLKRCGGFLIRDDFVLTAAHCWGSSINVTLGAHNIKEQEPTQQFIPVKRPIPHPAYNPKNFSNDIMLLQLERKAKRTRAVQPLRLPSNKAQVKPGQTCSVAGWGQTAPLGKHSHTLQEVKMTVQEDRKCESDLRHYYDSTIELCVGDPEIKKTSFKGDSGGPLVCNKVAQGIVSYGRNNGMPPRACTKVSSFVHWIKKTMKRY
Nature of the assay: Human Granzyme B enzymatic inhibition assay (fluorogenic, kinetic). Format: biochemical.
Settings: not given
As for the experimental part: A specific 2× assay buffer was prepared for the enzyme to be tested (see Table 2 for final 1× assay buffer compositions). If the assay buffer included DTT, it was added immediately prior to running the assay. A 2× enzyme mix was prepared (see Table 3 for enzyme assay conditions) at 80 uL per well. Compounds were screened at one or two appropriate concentrations (to determine the percent inhibition at those concentrations) and/or a full dose response curve (typically 8 points, to identify the IC50) in duplicate, triplicate, or higher replicates as needed. An appropriate control was also assessed in full dose response, in duplicate for each assay/plate. Background control wells consisted of 1× assay buffer, DMSO (5% v/v) and substrate. Positive control wells consisted of enzyme, DMSO (5% v/v) and substrate. Test compounds and control compounds were diluted in DMSO to […] the final desired concentration. For example, a test compound may be tested in dose response, in serial, tripling dilution condition starting at 20 uM and ending at 9.1 nM (or any appropriate concentration range and dilution scheme). Control compounds were prepared similarly. Diluted compounds were prepared in a dilution plate and transferred to the reaction plate (96-well medium binding plate (Greiner Bio-One FLUOTRAC™)) to allow for the desired final concentrations when added to the enzyme with AB. After mixing, the reaction plate was placed on a shaker (at 300 RPM) for 5 min, followed by incubation (covered) on the bench, for 20 min. Plates were warmed to reaction temperature (see Table 3) for a total incubation time of 30 min. Plates so prepared were ready for addition of substrate and the subsequent reaction.
(§1) An appropriate substrate for each assay was prepared in advance at 2× the final desired concentration (see Table 2) in DMSO. The appropriate substrate mix was added to each appropriate well on the reaction plate, and the plate was read immediately in the TECAN plate reader (TECAN INFINITE® M1000 Pro), set to the correct wavelength as needed for each assay (see Table 3) using 25 cycles, kinetic interval of 1 min, number of reads per well of 20 with shaking set to 1 s, double orbital, 2 mm amplitude. For fluorescent assays the gain was set to optimal (50%).
An in vitro fluorogenic detection assay for assessing the IC50 and/or percent inhibition at a given concentration of inhibitors against human Granzyme B (hGzmB) enzyme was performed as described in Example D1. When appropriate, percent inhibition data was collected and fitted to generate IC50 data using GraphPad Prism 5 (GraphPad Software, La Jolla Calif. USA, www.graphpad.com) and its non-linear regression analysis tools or other equivalent tools. […]
as §1, with “5)” for “2)”, “assay buffer. 30 uL of the” for “DMSO. The”, “6)” for “3)”, “15” for “25”, “(100% with gain regulation) for all assays except human GzmB which was set to 85 (with the z set at 23000 um).” for “(50%).”
An in vitro fluorogenic detection assay for assessing the IC50 and/or percent inhibition at a given concentration of inhibitors against human Granzyme B (hGzmB) enzyme was performed as described in Example D5. When appropriate, percent inhibition data was collected and fitted to generate IC50 data using GraphPad Prism 5 (GraphPad Software, La Jolla Calif. USA, www.graphpad.com) and its non-linear regression analysis tools or other equivalent tools.
Broadly, the IC50 is the point on the concentration scale where inhibition reaches its midpoint. As to `CC[C@H](C)[C@H](NC(=O)[C@@H](N)CC(=O)O)C(=O)NCC(=O)N1c2ccccc2C[C@H]1C(=O)NCc1nn[nH]n1` [Example A37, (3S)-3-Amino-3-{[(1S,2S)-2-Methyl-1-({2-Oxo-2-[(2S)-2-[(2H-1,2,3,4-Tetrazol-5-Ylmethyl)Carbamoyl]-2,3-Dihydro-1H-Indol-1-Yl]Ethyl}Carbamoyl)Butyl]Carbamoyl}Propanoic Acid], the half-inhibitory concentration (IC50) fell in the range of 100 to 1000 nM. In the case of `CC[C@H](C)[C@H](NC(=O)[C@H](N)CC(=O)O)C(=O)NCC(=O)N1c2ccccc2C[C@H]1C(=O)NCc1nn[nH]n1` [Example A38, (3R)-3-Amino-3-{[(1S,2S)-2-Methyl-1-({2-Oxo-2-[(2S)-2-[(2H-1,2,3,4-Tetrazol-5-Ylmethyl)Carbamoyl]-2,3-Dihydro-1H-Indol-1-Yl]Ethyl}Carbamoyl)Butyl]Carbamoyl}Propanoic Acid], the IC50 is 100 to 1000 nM.

Staying with this assay, now noted: activity codes, Table 7; read-out: IC50 Activity Range.
Consider `CC[C@H](C)[C@H](NC(=O)/C=C/C(=O)O)C(=O)NCC(=O)N1c2ccccc2C[C@H]1C(=O)NCc1nn[nH]n1` [Example A36, (2E)-3-{[(1S,2S)-2-Methyl-1-({2-Oxo-2-[(2S)-2-[(2H-1,2,3,4-Tetrazol-5-Ylmethyl)Carbamoyl]-2,3-Dihydro-1H-Indol-1-Yl]Ethyl}Carbamoyl)Butyl]Carbamoyl}Prop-2-Enoic Acid], for which the half-maximal inhibitory concentration (IC50) is under 100 nM. In the case of `CC[C@H](C)[C@H](NC(=O)C[C@H](N)C(=O)O)C(=O)NCC(=O)N1c2ccccc2C[C@H]1C(=O)NCc1nn[nH]n1` [Example A39, (2S)-2-Amino-3-{[(1S,2S)-2-Methyl-1-({2-Oxo-2-[(2S)-2-[(2H-1,2,3,4-Tetrazol-5-Ylmethyl)Carbamoyl]-2,3-Dihydro-1H-Indol-1-Yl]Ethyl}Carbamoyl)Butyl]Carbamoyl}Propanoic Acid], the IC50 is 100 to 1000 nM. On the same count and under the same terms, next, `CC[C@H](C)[C@H](NC(=O)C[C@@H](N)C(=O)O)C(=O)NCC(=O)N1c2ccccc2C[C@H]1C(=O)NCc1nn[nH]n1` [Example A40, (2R)-2-Amino-3-{[(1S,2S)-2-Methyl-1-({2-Oxo-2-[(2S)-2-[(2H-1,2,3,4-Tetrazol-5-Ylmethyl)Carbamoyl]-2,3-Dihydro-1H-Indol-1-Yl]Ethyl}Carbamoyl)Butyl]Carbamoyl}Propanoic Acid]: 100 to 1000 nM; `CC[C@@H](C)[C@H](NC(=O)Cc1ccccc1)C(=O)NCC(=O)N1c2ccccc2C[C@H]1C(=O)NCc1nn[nH]n1` [Example A42, (2S)-1-{2-[(2S,3R)-3-Methyl-2-(2-Phenylacetamido)Pentanamido]Acetyl}-N-(2H-1,2,3,4-Tetrazol-5-Ylmethyl)-2,3-Dihydro-1H-Indole-2-Carboxamide]: 1000 to 10000 nM. As for `CC[C@H](C)[C@H](NC(=O)CCC(=O)OCCOC(=O)C(C)(C)C)C(=O)NCC(=O)N1c2ccccc2C[C@H]1C(=O)NCc1nn[nH]n1` [Example A47, 2-[(2,2-Dimethylpropanoyl)Oxy]Ethyl 3-{[(1S,2S)-2-Methyl-1-({2-Oxo-2-[(2S)-2-[(2H-1,2,3,4-Tetrazol-5-Ylmethyl)Carbamoyl]-2,3-Dihydro-1H-Indol-1-Yl]Ethyl}Carbamoyl)Butyl]Carbamoyl}Propanoate], the IC50 fell in the range of 100 to 1000 nM. For `CC[C@H](C)[C@H](NC(=O)C1C[C@@H]1C(=O)O)C(=O)NCC(=O)N1c2ccccc2C[C@H]1C(=O)NCc1nn[nH]n1` (stereo partly drawn) [Example A48, (1S,2S)-2-{[(1S,2S)-2-Methy-1-({2-Oxo-2-[(2S)-2-[(2H-1,2,3,4-Tetrazol-5-Ylmethyl)Carbamoyl]-2,3-Dihydro-1H-Indol-1-Yl]Ethyl}Carbamoyl)Butyl]Carbamoyl}Cyclopropane-1-Carboxylic Acid], the IC50 lay within 1000 to 10000 nM. The same measure, in the same setting: next, `CC[C@H](C)[C@H](NC(=O)[C@H](C)c1ccccc1)C(=O)NCC(=O)N1c2ccccc2C[C@H]1C(=O)NCc1nn[nH]n1` [Example A49, (2S)-1-{2-[(2S,3S)-3-Methyl-2-[(2R)-2-Phenylpropanamido]Pentanamido]Acetyl}-N-(2H-1,2,3,4-Tetrazol-5-Ylmethyl)-2,3-Dihydro-1H-Indole-2-Carboxamide]: 100 to 1000 nM; `CC[C@H](C)[C@H](NC(=O)[C@@H](C)c1ccccc1)C(=O)NCC(=O)N1c2ccccc2C[C@H]1C(=O)NCc1nn[nH]n1` [Example A50, (2S)-1-{2-[(2S,3S)-3-Methyl-2-[(2S)-2-Phenylpropanamido]Pentanamido]Acetyl}-N-(2H-1,2,3,4-Tetrazol-5-Ylmethyl)-2,3-Dihydro-1H-Indole-2-Carboxamide]: 100 to 1000 nM; `CC[C@H](C)[C@H](NC(=O)CCC(C(=O)O)c1ccccc1)C(=O)NCC(=O)N1c2ccccc2C[C@H]1C(=O)NCc1nn[nH]n1` (stereo partly drawn) [Example A51, 4-{[(1S,2S)-2-Methyl-1-({2-Oxo-2-[(2S)-2-[(2H-1,2,3,4-Tetrazol-5-Ylmethyl)Carbamoyl]-2,3-Dihydro-1H-Indol-1-Yl]Ethyl}Carbamoyl)Butyl]Carbamoyl}-2-Phenylbutanoic Acid]: under 100 nM. Consider `CC[C@H](C)[C@H](NC(=O)Cc1ccccc1)C(=O)NCC(=O)N1c2ccccc2C[C@H]1C(=O)NC(C)c1nn[nH]n1` (stereo partly shown) [Example B3], for which the IC50 was 1000 to 10000 nM. On the same count and under the same terms, next, `CC[C@H](C)[C@H](NC(=O)Cc1ccccc1)C(=O)NCC(=O)N1c2cc(OC)ccc2CC1C(=O)NCc1c[nH]nn1` (stereo partly drawn) [Example B6, 6-Methoxy-1-{2-[(2S,3S)-3-Methyl-2-(2-Phenylacetamido)Pentanamido]Acetyl}-N-(1H-1,2,3-Triazol-5-Ylmethyl)-2,3-Dihydro-1H-Indole-2-Carboxamide]: 1000 to 10000 nM. Take `C[C@@H](O)[C@H](NC(=O)Cc1ccccc1)C(=O)NCC(=O)N1c2ccccc2C[C@H]1C(=O)NCc1nn[nH]n1` [Example C2, (2S)-1-{2-[(2S,3R)-3-Hydroxy-2-(2-Phenylacetamido)Butanamido]Acetyl}-N-(2H-1,2,3,4-Tetrazol-5-Ylmethyl)-2,3-Dihydro-1H-Indole-2-Carboxamide]: the IC50 was over 10000 nM.

Consider `C[C@H](O)[C@H](NC(=O)Cc1ccccc1)C(=O)NCC(=O)N1c2ccccc2C[C@H]1C(=O)NCc1nn[nH]n1` [Example C3, (2S)-1-{2-[(2S,3S)-3-Hydroxy-2-(2-Phenylacetamido)Butanamido]Acetyl}-N-(2H-1,2,3,4-Tetrazol-5-Ylmethyl)-2,3-Dihydro-1H-Indole-2-Carboxamide], for which the half-maximal inhibitory concentration (IC50) was over 10000 nM. As to `CC(C)C[C@H](NC(=O)Cc1ccccc1)C(=O)NCC(=O)N1c2ccccc2C[C@H]1C(=O)NCc1nn[nH]n1` [Example C4, (2S)-1-{2-[(2S)-4-Methyl-2-(2-Phenylacetamido)Pentanamido]Acetyl}-N-(2H-1,2,3,4-Tetrazol-5-Ylmethyl)-2,3-Dihydro-1H-Indole-2-Carboxamide], the IC50 lay within 1000 to 10000 nM.

Turning to `CCC[C@H](NC(=O)Cc1ccccc1)C(=O)NCC(=O)N1c2ccccc2C[C@H]1C(=O)NCc1nn[nH]n1` [Example C5, (2S)-1-{2-[(2S)-2-(2-Phenylacetamido)Pentanamido]Acetyl}-N-(2H-1,2,3,4-Tetrazol-5-Ylmethyl)-2,3-Dihydro-1H-Indole-2-Carboxamide], the IC50 is 1000 to 10000 nM. Regarding `CC(C)(C)[C@H](NC(=O)Cc1ccccc1)C(=O)NCC(=O)N1c2ccccc2C[C@H]1C(=O)NCc1nn[nH]n1` [Example C6, (2S)-1-{2-[(2S)-3,3-Dimethyl-2-(2-Phenylacetamido)Butanamido]Acetyl}-N-(2H-1,2,3,4-Tetrazol-5-Ylmethyl)-2,3-Dihydro-1H-Indole-2-Carboxamide], the IC50 lay within 1000 to 10000 nM. `CO[C@H](C)[C@H](NC(=O)Cc1ccccc1)C(=O)NCC(=O)N1c2ccccc2C[C@H]1C(=O)NCc1nn[nH]n1` [Example C7, (2S)-1-{2-[(2S,3R)-3-Methoxy-2-(2-Phenylacetamido)Butanamido]Acetyl}-N-(2H-1,2,3,4-Tetrazol-5-Ylmethyl)-2,3-Dihydro-1H-Indole-2-Carboxamide]: the IC50 fell in the range of 1000 to 10000 nM.
